Source: the supplement of paper PMC10307832

Assays:
Assay in all cases: relative viability (nuclei count vs DMSO), 5 days (fraction); higher = more cells survive
[1] = compound: O=C(NC1CCNCC1)c1n[nH]cc1NC(=O)c1c(Cl)cccc1Cl [AT-7519] + C[C@]1(O)C[C@@H](c2nc(-c3ccc4ccc(-c5ccccc5)nc4c3)c3c(N)nccn32)C1 [Linsitinib] (partner 1 µM)
Outline: (§1)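 One day after seeding in 1536-well plates, lung cancer cell lines were dosed by pin tool. Dosing was either single-drug or a fixed anchor-drug dose plus five library-drug doses (not always all listed) in √10 steps. After 5 days, nuclei were stained in one fix-and-stain step and counted on 4× images, and relative viability is the nuclei count of treated wells over that of vehicle wells, given as the median of duplicate plates.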

[2] = compound: O=C(NC1CCNCC1)c1n[nH]cc1NC(=O)c1c(Cl)cccc1Cl [AT-7519] + CC(=O)Nc1cccc(-n2c(=O)n(C3CC3)c(=O)c3c(Nc4ccc(I)cc4F)n(C)c(=O)c(C)c32)c1 [Trametinib] (partner 0.02 µM)
Outline: as §1

[3] = compound: C1=CC2=C(C=C(C(=C2N=C1)O)N=NC3=CC4=C(C=C3)C=C(C=C4)S(=O)(=O)O)S(=O)(=O)O + CCNC(=O)c1noc(-c2cc(C(C)C)c(O)cc2O)c1-c1ccc(CN2CCOCC2)cc1 [Luminespib] (partner 0.01 µM)
Outline: as §1

[4] = compound: O=C(NC1CCNCC1)c1n[nH]cc1NC(=O)c1c(Cl)cccc1Cl [AT-7519] + Nc1ncn([C@H]2C[C@H](O)[C@@H](CO)O2)c(=O)n1 [Decitabine] (partner 2 µM)
Outline: as §1

Cell Line | relative viability ([1]; first compound 0.01 µM) | relative viability ([1]; first compound 0.03162 µM) | relative viability ([1]; first compound 0.3162 µM) | relative viability ([1]; first compound 1 µM) | relative viability ([2]; first compound 0.01 µM) | relative viability ([2]; first compound 0.03162 µM) | relative viability ([2]; first compound 0.3162 µM) | relative viability ([2]; first compound 1 µM) | relative viability ([3]; first compound 0.08 µM) | relative viability ([3]; first compound 0.253 µM) | relative viability ([3]; first compound 0.8 µM) | relative viability ([3]; first compound 2.53 µM) | relative viability ([3]; first compound 8 µM) | relative viability ([4]; first compound 0.01 µM) | relative viability ([4]; first compound 0.03162 µM) | relative viability ([4]; first compound 0.3162 µM) | relative viability ([4]; first compound 1 µM)
IA-LM | 0.765 | 0.491 | 0.442 | 0.548 | – | – | – | – | – | – | – | – | – | – | – | – | –
LC-2-ad | 0.754 | 0.832 | 0.908 | 0.464 | 0.892 | 0.936 | 0.933 | 0.506 | 0.989 | 1.04 | 1.05 | 1.1 | 0.834 | 0.789 | 0.765 | 0.838 | 0.737
LCLC-97TM1 | 0.189 | 0.155 | 0.17 | 0.151 | 0.175 | 0.173 | 0.224 | 0.117 | 0.963 | 0.678 | 0.714 | 0.805 | 0.801 | 0.281 | 0.207 | 0.196 | 0.169
LCLC-103H | 0.955 | 1.04 | 1.1 | 1.13 | 0.686 | 0.682 | 0.72 | 0.587 | 1.09 | 0.902 | 1.09 | 0.96 | 0.957 | 0.785 | 0.669 | 0.707 | 0.653
LK-2 | 0.514 | 0.448 | 0.368 | 0.255 | 0.643 | 0.67 | 0.716 | 0.271 | 0.156 | 0.292 | 0.181 | 0.231 | 0.179 | 0.23 | 0.276 | 0.298 | 0.266
LOU-NH91 | 0.984 | 0.894 | 0.916 | 0.776 | 0.805 | 0.774 | 0.792 | 0.726 | 0.418 | 0.354 | 0.327 | 0.373 | 0.341 | 0.761 | 0.791 | 0.795 | 0.739
LU99A | 0.514 | 0.577 | 0.54 | 0.404 | 0.67 | 0.53 | 0.52 | 0.24 | 0.234 | 0.35 | 0.216 | 0.228 | 0.27 | 0.953 | 0.843 | 0.791 | 0.484
LXF-289 | 0.957 | 1.02 | 1.04 | 0.933 | 0.7 | 0.638 | 0.657 | 0.493 | 0.788 | 0.645 | 0.73 | 0.681 | 0.642 | 0.383 | 0.377 | 0.333 | 0.375
NCI-H23 | 0.591 | 0.619 | 0.523 | 0.255 | 0.338 | 0.355 | 0.33 | 0.164 | 0.202 | 0.21 | – | 0.194 | 0.209 | 0.296 | 0.296 | 0.298 | 0.254
NCI-H322M | 0.95 | 0.926 | 0.962 | 0.946 | 0.531 | 0.444 | 0.539 | 0.525 | 1.04 | 0.828 | 0.859 | 0.847 | 1.12 | 0.654 | 0.643 | 0.631 | 0.554
NCI-H358 | 0.733 | 0.592 | 0.347 | 0.157 | 0.127 | 0.13 | 0.253 | 0.0967 | 0.342 | 0.382 | 0.307 | 0.309 | 0.214 | 0.202 | 0.193 | 0.198 | 0.112
NCI-H441 | 0.553 | 0.482 | 0.487 | 0.395 | 0.429 | 0.474 | 0.32 | 0.23 | 0.454 | 0.323 | 0.428 | 0.363 | 0.278 | 0.253 | 0.213 | 0.26 | 0.152
NCI-H460 | 0.712 | 0.63 | 0.159 | 0.0184 | 0.193 | 0.155 | 0.129 | 0.0266 | 0.0298 | 0.032 | 0.13 | 0.022 | 0.0231 | 0.452 | 0.432 | 0.388 | 0.0681
NCI-H522 | – | – | – | – | 0.717 | 0.835 | 0.757 | 0.717 | 1.21 | 1.19 | 0.983 | 1.16 | 1.11 | 0.648 | 0.588 | 0.662 | 0.644
NCI-H1299 | 1.1 | 0.96 | 0.946 | 0.645 | – | – | – | – | – | – | – | – | – | – | – | – | –
NCI-H1563 | 1.2 | 1.25 | 1.25 | 1 | – | – | – | – | 0.514 | 0.522 | 0.489 | 0.498 | 0.404 | – | – | – | –
NCI-H1623 | – | – | – | – | – | – | – | – | 0.747 | 0.471 | 0.471 | 0.503 | 0.559 | – | – | – | –
NCI-H1648 | – | – | – | – | 0.39 | – | 0.366 | 0.335 | – | – | – | – | – | 0.427 | – | 0.438 | 0.445
NCI-H1650 | – | – | – | – | 0.634 | 0.538 | 0.449 | 0.223 | 0.197 | 0.177 | 0.194 | 0.191 | 0.184 | 0.401 | 0.388 | 0.431 | 0.204
NCI-H1703 | 0.854 | 0.835 | 0.379 | 0.149 | – | – | – | – | – | – | – | – | – | – | – | – | –
NCI-H2170 | – | – | – | – | 0.994 | 0.868 | 0.91 | 0.708 | 0.83 | 0.63 | 0.672 | 0.731 | 0.895 | 0.495 | 0.454 | 0.461 | 0.522
NCI-H2228 | 0.618 | 0.564 | 0.544 | 0.312 | 0.441 | 0.426 | 0.421 | 0.247 | 0.136 | 0.13 | 0.134 | 0.166 | 0.0984 | – | – | – | –
NCI-H2342 | – | – | – | – | 0.779 | 0.784 | 0.809 | 0.817 | 0.67 | 0.714 | 0.625 | 0.767 | 0.73 | 0.709 | 0.61 | 0.701 | 0.631
SW 900 | – | – | – | – | 0.986 | 0.744 | 0.659 | 0.401 | 0.175 | 0.2 | 0.18 | 0.186 | 0.163 | 0.437 | 0.435 | 0.422 | 0.32
